Test results reported in PubChem BioAssay (NCI).
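Dose response: 5 concentrations. Exposure: 48 h. Format: 96-well plates. Endpoint: linear interpolation; highest concentration if not reached. TGI: total growth inhibition.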

Assays:
Assay in all cases: growth of human tumour cells (NCI), 48 h
[1] = tested on: NCI-H460 lung
[2] = tested on: SK-MEL-2 melanoma
[3] = tested on: A549 NSCLC
[4] = tested on: RXF 393 renal
[5] = tested on: OVCAR-4 ovarian
[6] = tested on: OVCAR-8 ovarian
[7] = tested on: MDA-N
[8] = tested on: MCF7 breast
[9] = tested on: IGROV1 ovarian
[10] = tested on: NCI-H23 lung
[11] = tested on: OVCAR-3 ovarian
[12] = tested on: LOX IMVI melanoma
[13] = tested on: CCRF-CEM leukemia
[14] = tested on: HOP-62 NSCLC
[15] = tested on: UACC-257 melanoma
[16] = tested on: MDA-MB-435
[17] = tested on: OVCAR-5 ovarian
[18] = tested on: DU-145 prostate
[19] = tested on: SF-539 CNS
[20] = tested on: SF-268 CNS
[21] = tested on: 786-0 renal
[22] = tested on: SK-MEL-28 melanoma
[23] = tested on: HT29 colon
[24] = tested on: MDA-MB-231 breast
[25] = tested on: TK-10 renal
[26] = tested on: SW-620 colon
[27] = tested on: NCI-H226 lung
[28] = tested on: HOP-92 NSCLC
[29] = tested on: NCI/ADR-RES ovarian
[30] = tested on: HCC-2998 colon
[31] = tested on: ACHN renal
[32] = tested on: SR leukemia
[33] = tested on: EKVX NSCLC
[34] = tested on: KM12 colon
[35] = tested on: HL-60(TB) leukemia
[36] = tested on: M14 melanoma
[37] = tested on: HCT-116 colon
[38] = tested on: SNB-19 CNS
[39] = tested on: MALME-3M melanoma
[40] = tested on: U251 CNS
[41] = tested on: SNB-75 CNS
[42] = tested on: SN12C renal
[43] = tested on: BT-549 breast
[44] = tested on: A498 renal
[45] = tested on: RPMI-8226 leukemia
[46] = tested on: K-562 leukemia
[47] = tested on: SK-MEL-5 melanoma
[48] = tested on: CAKI-1 renal
[49] = tested on: HCT-15 colon
[50] = tested on: UO-31 renal
[51] = tested on: COLO 205 colon
[52] = tested on: MOLT-4 leukemia
[53] = tested on: SF-295 CNS
[54] = tested on: HS 578T breast
[55] = tested on: NCI-H522 lung
[56] = tested on: PC-3 prostate
[57] = tested on: UACC-62 melanoma
[58] = tested on: SK-OV-3 ovarian

## CN1CC[C@]2(c3cccc(O)c3)CC(=O)/C(=C/c3ccccc3)[C@@H]1C2
[1]
  TGI: 7.23 µM
[2]
  TGI: 13 µM
[3]
  TGI: 13.2 µM
[4]
  TGI: 4.18 µM
[5]
  TGI: 16.9 µM
[6]
  TGI: 10.5 µM
[7]
  TGI: 3.94 µM
[8]
  TGI: 6.06 µM
[9]
  TGI: 14.6 µM
[10]
  TGI: 36.8 µM
[11]
  TGI: 4.43 µM
[12]
  TGI: 4.71 µM
[13]
  TGI: > 24.5 µM
[14]
  TGI: 12.7 µM
[15]
  TGI: 11.7 µM
[16]
  TGI: 5.38 µM
[17]
  TGI: 29.7 µM
[18]
  TGI: 17.5 µM
[19]
  TGI: 6.1 µM
[20]
  TGI: 10.4 µM
[21]
  TGI: 7.12 µM
[22]
  TGI: 13.4 µM
[23]
  TGI: 7.55 µM
[24]
  TGI: 7.29 µM
[25]
  TGI: 27.1 µM
[26]
  TGI: 6.93 µM
[27]
  TGI: 31.9 µM
[28]
  TGI: 9.93 µM
[29]
  TGI: 16.1 µM
[30]
  TGI: 7.16 µM
[31]
  TGI: 6.74 µM
[32]
  TGI: 8.68 µM
[33]
  TGI: 20.2 µM
[34]
  TGI: 11.4 µM
[35]
  TGI: 5.33 µM
[36]
  TGI: 12.1 µM
[37]
  TGI: 5.94 µM
[38]
  TGI: 18.2 µM
[39]
  TGI: 10.4 µM
[40]
  TGI: 8.36 µM
[41]
  TGI: 5.27 µM
[42]
  TGI: 13.6 µM
[43]
  TGI: 7.27 µM
[44]
  TGI: 17 µM
[45]
  TGI: 4.84 µM
[46]
  TGI: 4.01 µM
[47]
  TGI: 14.7 µM
[48]
  TGI: 6.04 µM
[49]
  TGI: 4.93 µM
[50]
  TGI: 10.4 µM
[51]
  TGI: 18.1 µM
[52]
  TGI: 5.59 µM
[53]
  TGI: 13.2 µM
[54]
  TGI: 13 µM
[55]
  TGI: 11.2 µM
[56]
  TGI: 7.74 µM

## CSc1csc(-c2ccc(-c3ccc(-c4cc(SC)cs4)s3)s2)c1
[1]
  TGI: > 100 µM
[2]
  TGI: > 100 µM
[3]
  TGI: > 100 µM
[5]
  TGI: > 100 µM
[7]
  TGI: > 100 µM
[8]
  TGI: > 100 µM
[9]
  TGI: > 100 µM
[10]
  TGI: > 100 µM
[11]
  TGI: > 100 µM
[12]
  TGI: > 100 µM
[13]
  TGI: > 100 µM
[14]
  TGI: > 100 µM
[15]
  TGI: > 100 µM
[16]
  TGI: > 100 µM
[17]
  TGI: > 100 µM
[19]
  TGI: > 100 µM
[20]
  TGI: > 100 µM
[21]
  TGI: > 100 µM
[22]
  TGI: > 100 µM
[23]
  TGI: > 100 µM
[24]
  TGI: > 100 µM
[25]
  TGI: > 100 µM
[26]
  TGI: > 100 µM
[27]
  TGI: > 100 µM
[29]
  TGI: > 100 µM
[30]
  TGI: > 100 µM
[31]
  TGI: > 100 µM
[32]
  TGI: > 100 µM
[33]
  TGI: > 100 µM
[34]
  TGI: > 100 µM
[57]
  TGI: > 100 µM
[36]
  TGI: > 100 µM
[58]
  TGI: > 100 µM
[37]
  TGI: > 100 µM
[38]
  TGI: > 100 µM
[39]
  TGI: > 100 µM
[40]
  TGI: > 100 µM
[41]
  TGI: > 100 µM
[42]
  TGI: > 100 µM
[43]
  TGI: > 100 µM
[45]
  TGI: > 100 µM
[46]
  TGI: > 100 µM
[47]
  TGI: > 100 µM
[49]
  TGI: > 100 µM
[50]
  TGI: > 100 µM
[51]
  TGI: > 100 µM
[52]
  TGI: > 100 µM
[53]
  TGI: > 100 µM
[54]
  TGI: > 100 µM
[56]
  TGI: > 100 µM
